Data reported in patent US9458141B2, “Low molecular weight thyroid stimulating hormone receptor (TSHR) agonists” (The United States of America, as represented by the …, priority 2008, dated 2016).

Biological target: T1, human TSHR (Homo sapiens, UniProt P16473)
T1 construct: expressed in transfected cells
Test: Homogeneous Time Resolved Fluorescence (HTRF) cAMP assay, TSHR cell line
Assay type: cell-based
Conditions: for Maximum Activity compared to TSH: 100% activity = response of 30 mU/ml TSH, 0% = DMSO control, in %; for AC50: HTRF cAMP, TSHR cell line, 30 minute incubation, read-out: AC50; for Emax: read-out: Maximum Activity compared to TSH, 100% activity = response of 30 mU/ml TSH, 0% = DMSO control
Text: Generation of Stable Cell-Lines Expressing TSHR, LHCGR or FSHR.
cDNA for human TSHR was amplified by PCR from hTSHR-pSVL (1) and inserted into the pcDNA3.1(−)/hygromycin vector using restriction sites XhoI and BamHI. cDNA for human LHCGR was amplified by PCR from hLHR-pGS5 (2) and was inserted into the pcDNA3.1(+)/hygromycin vector using restriction sites BamHI and XhoI. The FSHR cDNA in pcDNA3.1 was obtained from the Missouri S&T cDNA Resource Center (www.cDNA.org) and was subcloned into the pcDNA3.1(−)/hygromycin vector. Constructs were confirmed by sequencing (MWG Biotech). HEK-EM 293 cells were transfected with the cDNA of TSHR, LHCGR or FSHR using FuGENE 6 Transfection reagent (Roche Diagnostics) according to the manufacturer's protocol. Two days after transfection cells were passaged and grown in Dulbecco's modified Eagle's Medium (DMEM) supplemented with 10% fetal bovine serum, 100 units/ml penicillin and 10 μg/ml streptomycin (Life Technologies Inc.) and with hygromycin (250 μg/ml) as a selection marker. After 7 to 10 days hygromycin-resistant clones were selected, and after a few days of further growth submitted for a cAMP assay to identify clones that stably express the appropriate receptor. Cell Culture. Cells stably expressing TSHR, LHCGR or FSHR and parental HEK 293 cells were maintained in DMEM medium containing 10% FBS, 100 units/ml Penicillin, 100 μg/ml Streptomycin, at 37° C. in 5% CO2. For the cells lines stably expressing TSHR, LHCGR or FSHR, additional 250 μg/ml Hygromycin was added during the cell culture. The cells were seeded at a density of 3 to 4 million cells in a T175 flask containing 35 ml of media and were allowed to grow for 3 days to reach 80-90% confluence. A flask of HEK 293 cells at this density generally yielded 30 million cells total. Homogeneous Time Resolved Fluorescence (HTRF) cAMP Assay. Compounds were assayed using a HTRF cAMP detection kit (Cisbio, Bedford, Mass.) on both TSHR cell line and parental cell line. Briefly, 750 cells were plated in 2.5 μl/well of complete media (DMEM containing 10% FCS) in 1536 well solid bottom white plates and 20 nl/well compound in DMSO solution or controls was added. Following 30 minute incubation at room temperature, 2.5 μl/well of labeled d2 cAMP and 2.5 μl/well of anti-cAMP antibody (both diluted 1:20 in lysis buffer) were added to each well using a flying reagent dispenser (Aurora Discovery, San Diego). Plates were measured using the Envision plate reader (PerkinElmer, Boston, Mass.) with excitation at 330 nm and emissions of 615 nm and 660 nm. Compound Preparation. […] Data Analysis. […] The EC50 values of compounds were calculated from the concentration-response curves by nonlinear regression analysis using Prism software (GraphPad Software, San Diego, Calif.). Confirmatory cAMP Assay and Test for Selectivity Towards TSHR 50,000 cells/well were plated in complete media (DMEM containing 10% FCS) in 96 well plates. […] Following aspiration of the medium after incubation with compounds, cells were lysed using lysis buffer of the cAMP-Screen Direct™ System (Applied Biosystems, Cat # CSD200). The cAMP content of the cell lysate was determined using the manufacturer's protocol. […] Below is a List of Compounds that were Assayed via the Homogeneous Time Resolved Fluorescence (HTRF) cAMP Assay.

T1 sequence (P16473 21-764): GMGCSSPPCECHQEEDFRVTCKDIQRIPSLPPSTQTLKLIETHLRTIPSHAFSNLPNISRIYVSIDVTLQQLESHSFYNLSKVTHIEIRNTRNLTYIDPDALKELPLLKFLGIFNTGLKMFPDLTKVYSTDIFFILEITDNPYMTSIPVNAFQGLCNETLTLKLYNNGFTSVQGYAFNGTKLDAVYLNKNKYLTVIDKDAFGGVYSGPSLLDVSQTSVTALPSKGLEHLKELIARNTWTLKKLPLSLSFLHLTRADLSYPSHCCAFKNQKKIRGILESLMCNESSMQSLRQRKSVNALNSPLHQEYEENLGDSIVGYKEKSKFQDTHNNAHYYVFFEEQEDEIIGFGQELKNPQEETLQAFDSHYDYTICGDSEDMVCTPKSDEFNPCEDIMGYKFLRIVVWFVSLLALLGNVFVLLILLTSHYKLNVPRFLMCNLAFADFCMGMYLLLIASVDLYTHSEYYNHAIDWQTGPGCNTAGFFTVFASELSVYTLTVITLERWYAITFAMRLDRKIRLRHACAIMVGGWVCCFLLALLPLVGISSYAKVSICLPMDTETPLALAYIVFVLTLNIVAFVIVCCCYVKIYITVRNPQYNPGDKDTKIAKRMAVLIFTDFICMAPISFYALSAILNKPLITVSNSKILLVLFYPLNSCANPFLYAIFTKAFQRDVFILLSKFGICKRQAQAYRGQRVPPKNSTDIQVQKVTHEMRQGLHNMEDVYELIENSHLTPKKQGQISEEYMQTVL

| SMILES | Maximum Activity compared to TSH | AC50 [µM] | Emax [%] |
| --- | --- | --- | --- |
| COc1ccc(C2Nc3ccccc3C(=O)N2Cc2ccco2)cc1COc1ccc(NC(C)=O)cc1 (centres unmarked) [Structure 34] | 122.30 | 15.8 | – |
| COc1ccc(C2Nc3ccc(NC(=O)CO)cc3C(=O)N2Cc2cccc(Cl)c2)cc1COc1ccc(NC(C)=O)cc1 (centres unmarked) [Structure 36] | – | 5.62 | 115 |
| COc1ccc(CN(Cc2ccccc2)C(=O)c2ccccc2)cc1COc1ccc(NC(C)=O)cc1 [Structure 40] | 128.80 | 11.2 | – |
| COc1ccc(C2Nc3ccccc3C(=O)N2Cc2ccco2)cc1COc1ccc(NC(C)=O)cc1 (centres unmarked) [Structure 42] | 131.51 | 14.1 | – |
| COc1ccc(-c2nc3ccccc3c(=O)n2Cc2ccco2)cc1COc1ccc(NC(C)=O)cc1 [Structure 47] | 165.16 | 25.1 | – |
| COc1ccc(C2Nc3ccc(NC(=O)COC(C)=O)cc3C(=O)N2Cc2ccccc2)cc1COc1ccc(NC(C)=O)cc1 (centres unmarked) [Structure 48] | 106.48 | 8.91 | – |
| COc1ccc(C2Nc3ccccc3C(=O)N2Cc2cccc(Cl)c2)cc1COc1ccc(NC(C)=O)cc1 (centres unmarked) [Structure 50] | 70.37 | 2.82 | – |
| COc1ccc(-c2nc3ccccc3c(=O)n2Cc2ccccc2)cc1COc1ccc(NC(C)=O)cc1 [Structure 52] | 104.78 | 8.91 | – |
| COc1ccc(CN(Cc2ccccc2)C(=O)c2ccccc2)cc1COc1ccc(NC(C)=O)cc1 [Structure 57] | 100.67 | 14.1 | – |
| COc1ccc(CN(Cc2ccccc2)C(=O)c2ccccc2)cc1COc1ccc(NC(C)=O)cc1 [Structure 58] | 93.09 | 8.91 | – |
| COc1ccc(C2Nc3cccc(O)c3C(=O)N2Cc2ccccc2)cc1COc1ccc(NC(C)=O)cc1 (centres unmarked) [Structure 61] | 302.11 | 7.94 | – |
| COc1ccc(-c2nc3ccccc3c(=O)n2Cc2ccccc2)cc1COc1ccc(NC(C)=O)cc1 [Structure 64] | 70.53 | 7.94 | – |
| COc1ccc(C2Nc3ccccc3C(=O)N2CCc2ccccc2)cc1COc1ccc(NC(C)=O)cc1 (centres unmarked) [Structure 67] | 82.36 | 7.94 | – |
| COc1ccc(CN(Cc2ccccc2)C(=O)C2CC2)cc1COc1ccc(NC(C)=O)cc1 [Structure 68] | – | 22.4 | 74.8 |
| COc1ccc(C2Nc3ccccc3C(=O)N2CCc2ccccc2)cc1COc1ccc(NC(C)=O)cc1 (centres unmarked) [Structure 70] | 53.96 | 10 | – |
| COc1ccc(C2Cc3ccccc3C(=O)N2Cc2ccccc2)cc1COc1ccc(NC(C)=O)cc1 (centres unmarked) [Structure 76] | 64.77 | 6.31 | – |
| COc1ccc(C2Nc3ccccc3C(=O)N2Cc2ccc(Cl)cc2)cc1COc1ccc(NC(C)=O)cc1 (centres unmarked) [Structure 77] | 68.63 | 3.16 | – |
| COc1ccc(C2Nc3ccccc3C(=O)N2Cc2cccc(-c3ccccc3)c2)cc1COc1ccc(NC(C)=O)cc1 (centres unmarked) [Structure 79] | 61.52 | 1.78 | – |
| COc1ccc(C2Oc3ccc(NC(C)=O)cc3C(=O)N2Cc2cccc(Cl)c2)cc1COc1ccc(NC(C)=O)cc1 (centres unmarked) [Structure 83] | – | 7.08 | 79 |

The remaining lines, values ahead:

| Maximum Activity compared to TSH | AC50 [µM] | Emax [%] | SMILES |
| --- | --- | --- | --- |
| 115.01 | 12.6 | – | COc1ccc(C2Oc3ccccc3C(=O)N2Cc2ccccc2)cc1COc1ccc(NC(C)=O)cc1 (centres unmarked) [Structure 35] |
| 573.36 | 7.08 | – | COc1ccc(C2Nc3ccccc3C(=O)N2Cc2ccccc2)cc1CSc1ccc(NC(C)=O)cc1 (centres unmarked) [Structure 38] |
| 123.60 | 20 | – | CCCCN1C(=O)c2ccccc2NC1c1ccc(OC)c(COc2ccc(NC(C)=O)cc2)c1 (centres unmarked) [Structure 39] |
| 122.50 | 15.8 | – | COc1ccc(CN(Cc2ccccc2)C(=O)c2ccco2)cc1COc1ccc(NC(C)=O)cc1 [Structure 41] |
| 128.45 | 10 | – | COc1ccc(C2Nc3ccc(NC(=O)CO)cc3C(=O)N2Cc2cccc(Cl)c2)cc1COc1ccc(NC(C)=O)cc1 (centres unmarked) [Structure 43] |
| 105.58 | 7.08 | – | COc1ccc(C2Nc3ccccc3C(=O)N2Cc2cccc(Cl)c2)cc1COc1ccc(NC(C)=O)cc1 (centres unmarked) [Structure 44] |
| 141.85 | 14.1 | – | COc1ccc(C(=O)N(Cc2ccccc2)Cc2ccc(OC)c(COc3ccc(NC(C)=O)cc3)c2)cc1 [Structure 45] |
| 182.52 | 7.94 | – | COc1cccc(CN2C(=O)c3ccccc3NC2c2ccc(OC)c(COc3ccc(NC(C)=O)cc3)c2)c1 (centres unmarked) [Structure 46] |
| 141.76 | 12.6 | – | COc1ccc(C2Nc3ccccc3C(=O)N2Cc2ccco2)cc1COc1ccc(NC(C)=O)cc1 (centres unmarked) [Structure 53] |
| 115.69 | 10 | – | COc1ccc(C2Cc3ccccc3C(=O)N2Cc2ccccc2)cc1COc1ccc(NC(C)=O)cc1 (centres unmarked) [Structure 54] |
| 226.43 | 17.8 | – | COc1ccc(C2Nc3ccccc3C(=O)N2Cc2ccco2)cc1COc1ccc(NC(C)=O)cc1 (centres unmarked) [Structure 59] |
| 189.97 | 6.31 | – | COc1ccc(C2Nc3ccccc3C(=O)N2Cc2cccc(C(F)(F)F)c2)cc1COc1ccc(NC(C)=O)cc1 (centres unmarked) [Structure 60] |
| – | 14.1 | 51.6 | COc1ccc(CN(Cc2ccccc2)C(=O)c2ccccc2O)cc1COc1ccc(NC(C)=O)cc1 [Structure 65] |
| 64.52 | 8.91 | – | COc1ccc(C2Nc3ccc(NC(=O)COC(C)=O)cc3C(=O)N2Cc2ccccc2)cc1COc1ccc(NC(C)=O)cc1 (centres unmarked) [Structure 66] |
| 44.83 | 25.1 | – | COc1ccc(CN(Cc2ccccc2)C(=O)c2ccncc2)cc1COc1ccc(NC(C)=O)cc1 [Structure 69] |
| 44.19 | 7.94 | – | COc1ccc(CN(Cc2ccccc2)C(=O)c2cccc(C#N)c2)cc1COc1ccc(NC(C)=O)cc1 [Structure 71] |
| – | 3.98 | 55.2 | COc1ccc(C2Nc3ccccc3C(=O)N2Cc2ccc(Cl)cc2)cc1COc1ccc(NC(C)=O)cc1 (centres unmarked) [Structure 72] |
| 75.04 | 28.2 | – | COc1ccc(CN(Cc2ccccc2)C(=O)c2ccc(O)cc2)cc1COc1ccc(NC(C)=O)cc1 [Structure 73] |
| – | 2.82 | 36 | COc1ccc(C2Nc3ccccc3C(=O)N2Cc2ccc(-c3ccccc3)cc2)cc1COc1ccc(NC(C)=O)cc1 (centres unmarked) [Structure 74] |
| 70.09 | 20 | – | COc1ccc(CN(Cc2ccccc2)C(=O)c2cccc(C#N)c2)cc1COc1ccc(NC(C)=O)cc1 [Structure 75] |
| 66.16 | 8.91 | – | COc1ccc(C2Oc3ccccc3C(=O)N2Cc2ccccc2)cc1COc1ccc(NC(C)=O)cc1 (centres unmarked) [Structure 78] |
| – | 22.4 | 40 | COc1ccc(-c2nc3ccc(NC(=O)CO)cc3c(=O)n2Cc2cccc(Cl)c2)cc1COc1ccc(NC(C)=O)cc1 [Structure 80] |
| 76.98 | 15.8 | – | COc1ccc(CN(Cc2ccccc2)C(=O)C2CC2)cc1COc1ccc(NC(C)=O)cc1 [Structure 81] |
| – | 25.1 | 59 | COc1ccc(-c2nc3ccccc3c(=O)n2Cc2ccccc2)cc1CNc1ccc(CC(C)=O)cc1 [Structure 82] |
